# Data reported in patent publication US20240083861A1, “HSD17B13 INHIBITORS AND USES THEREOF” (FL2022-001, Inc., priority 2020, published 2024).
# Molecular target: T1, Recombinant human HSD17B13 enzyme (Homo sapiens, UniProt Q7Z5P4)
# T1 sequence (Q7Z5P4 20-300): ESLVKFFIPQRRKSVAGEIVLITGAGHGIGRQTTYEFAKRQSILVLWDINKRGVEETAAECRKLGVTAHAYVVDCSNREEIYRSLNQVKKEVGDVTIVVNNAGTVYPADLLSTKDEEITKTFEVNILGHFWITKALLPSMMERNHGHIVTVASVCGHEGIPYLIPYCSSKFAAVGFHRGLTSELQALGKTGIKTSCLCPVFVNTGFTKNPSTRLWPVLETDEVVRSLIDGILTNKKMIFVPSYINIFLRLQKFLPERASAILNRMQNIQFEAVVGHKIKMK
# Experiment: HSD17b13 NAD(P)H-Glo biochemical assay
# Details: 50 uM estradiol, 1 mM NAD+, NAD(P)H-Glo luminescence; read-out: HSD17β13 IC50
# Method in brief: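 Luminescent NAD(P)H-Glo read-out, taken after 1 hour at RT, measured cofactor reduction. Substrate and cofactor were estradiol at 50 uM and NAD+ at 1 mM final, reacted with the recombinant human enzyme for 3 hours at 37° C in 20 mM Tris pH7.4, 0.002% Tween-20, 0.02% BSA. Compound was pre-incubated with enzyme for 20 minutes at RT.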
row,SMILES,IC50
1,"Cn1nc(-c2cc(C(F)(F)F)c(F)c(O)c2F)c2cnc(N3CCOC(c4ccccc4)C3)nc21 (stereo not drawn) [Compound 18.32, 2,6-Difluoro-3-(1-methyl-6-(2-phenylmorpholino)-1H-pyrazolo[3,4-d]pyrimidin-3-y1)-5-(trifluoromethyl)phenol]",< 100 nM
2,"Cn1nc(-c2cc(C(F)(F)F)c(F)c(O)c2F)c2cnc(N3CCCCC3)nc21 [Compound 18.35, 2,6-Difluoro-3-(1-methyl-6-(piperidin-1-yl)-1H-pyrazolo[3,4-d]pyrimidin-3-y1)-5-(trifluoromethyl)phenol]",< 100 nM
3,"Cn1nc(-c2cc(C(F)(F)F)c(F)c(O)c2F)c2cnc(N3CCC4(CCOC4)CC3)nc21 [Compound 18.37, 2,6-Difluoro-3-(1-methyl-6-(2-oxa-8-azaspiro[4.5]decan-8-yl)-1H-pyrazolo[3,4-d]pyrimidin-3-y1)-5-(trifluoromethyl)phenol]",< 100 nM
4,"Cn1nc(-c2cc(C(F)(F)F)c(F)c(O)c2F)c2cnc(N3CCOCC3CC(=O)O)nc21 (stereo not drawn) [Compound 18.40, 2-(4-(3-(2,4-Difluoro-3-hydroxy-5-(trifluoromethyl)phenyl)-1-methyl-1H-pyrazolo[3,4-d]pyrimidin-6-yl)morpholin-3-yl)acetic Acid]",100 to 1000 nM
5,"CN1CCC2(CC1)CN(c1ncc3c(-c4cc(C(F)(F)F)c(F)c(O)c4F)nn(C)c3n1)CCO2 [Compound 18.41, 2,6-Difluoro-3-(1-methyl-6-(9-methyl-1-oxa-4,9-diazaspiro[5.5]undecan-4-y1)-1H-pyrazolo[3,4-d]pyrimidin-3-y1)-5-(trifluoromethyl)phenol]",100 to 1000 nM

# Further lines, results first:
row,IC50,SMILES
1,100 to 1000 nM,"CN(C)CC1CN(c2ncc3c(-c4cc(C(F)(F)F)c(F)c(O)c4F)nn(C)c3n2)CCO1 (stereo not drawn) [Compound 18.33, 3-(6-(2-((Dimethylamino)methyl)morpholino)-1-methyl-1H-pyrazolo[3,4-d]pyrimidin-3-y1)-2,6-difluoro-5-(trifluoromethyl)phenol]"
2,100 to 1000 nM,"CN(C)CC1CCN(c2ncc3c(-c4cc(C(F)(F)F)c(F)c(O)c4F)nn(C)c3n2)CC1 [Compound 18.34, 3-(6-(4-((Dimethylamino)methyl)piperidin-1-y1)-1-methyl-1H-pyrazolo[3,4-d]pyrimidin-3-y1)-2,6-difluoro-5-(trifluoromethyl)phenol]"
3,< 100 nM,"Cn1nc(-c2cc(C(F)(F)F)c(F)c(O)c2F)c2cnc(N3CCC4(CCOCC4)CC3)nc21 [Compound 18.36, 2,6-Difluoro-3-(1-methyl-6-(3-oxa-9-azaspiro[5.5]undecan-9-yl)-1H-pyrazolo[3,4-d]pyrimidin-3-y1)-5-(trifluoromethyl)phenol]"
4,1000 to 30000 nM,"Cn1nc(-c2cc(C(F)(F)F)c(F)c(O)c2F)c2cnc(N3CCOCC3C(=O)O)nc21 (stereo not drawn) [Compound 18.38, 4-(3-(2,4-Difluoro-3-hydroxy-5-(trifluoromethyl)phenyl)-1-methyl-1H-pyrazolo[3,4-d]pyrimidin-6-yl)morpholine-3-carboxylic Acid]"
5,100 to 1000 nM,"CN(C)CCC1CN(c2ncc3c(-c4cc(C(F)(F)F)c(F)c(O)c4F)nn(C)c3n2)CCO1 (stereo not drawn) [Compound 18.39, 3-(6-(2-(2-(Dimethylamino)ethyl)morpholino)-1-methyl-1H-pyrazolo[3,4-d]pyrimidin-3-y1)-2,6-difluoro-5-(trifluoromethyl)phenol]"
6,< 100 nM,"Cn1nc(-c2cc(C(F)(F)F)c(F)c(O)c2F)c2cnc(N3CCOCC3C3CCOCC3)nc21 (stereo not drawn) [Compound 18.42, 2,6-Difluoro-3-(1-methyl-6-(3-(tetrahydro-2H-pyran-4-yl)morpholino)-1H-pyrazolo[3,4-d]pyrimidin-3-y1)-5-(trifluoromethyl)phenol]"
7,1000 to 30000 nM,"Cn1nc(-c2cc(C(F)(F)F)c(F)c(O)c2F)c2cnc(N3CCOC(C(=O)O)C3)nc21 (stereo not drawn) [Compound 18.43, 4-(3-(2,4-Difluoro-3-hydroxy-5-(trifluoromethyl)phenyl)-1-methyl-1H-pyrazolo[3,4-d]pyrimidin-6-yl)morpholine-2-carboxylic Acid]"
